Data on one compound can be found in patent publication US11274332B2, “Methods of administering 3,4-diaminopyridine” (SERB SA, priority 2011, dated 2022).

This series can be described thus: Bioavailability/bioequivalence study of 3,4-DAP phosphate salt vs free base in healthy subjects (Example A). Type of series: in vivo, human. The protocol:
The primary objectives of the study were to evaluate the clinical tolerance of a single 10 mg dose (equivalent base) oral intake of 3,4-DAP salt in five healthy subjects and to determine the relative bioequivalence of a single 20 mg oral dose of 3,4-DAP administered as a salt or as a free base to 26 healthy subjects. The secondary objectives were to study pharmacokinetic parameters (elimination half and elimination constant), to compare the biological tolerance of both a 20 mg oral intake of 3,4-DAP as a free base and as a salt, and to measure QTcf intervals at expected Cmax.
This was an open and uncontrolled study of the clinical tolerance to a low dose of the phosphate salt. Subjects were hospitalized from 8 am to 4 pm after fasting since midnight the previous night. At 8:30 am, one 10 mg 3,4-DAP phosphate tablet was administered with a glass of water in the presence of a supervising nurse. During their 8-hour stay, heart rate was continuously monitored, blood pressure was measured on eight occasions (including baseline) and three urine samples were taken.
This was a double-blind, randomized 2-way cross-over trial. The two administration periods were separated by a wash-out of at least 3 days and not more than 10 days. At the beginning of each period, subjects were hospitalized at 8 am (while fasting since midnight) for at least 12 hours. At their arrival a urinary sample was taken and avenous catheter was inserted into an antecubital vein. A first blood sample was drawn 15 min before drug intake. At around 8:30 am drug was administered (as the phosphate salt or free base according to randomization) with a glass of water under the supervision of a nurse and subjects remained seated for 15 min. Group A received two 10 mg tablets of 3,4-DAP phosphate. Group B received two 10 mg capsules of 3,4-DAP as a free base.
Two 5 mL blood samples were drawn at the following times after drug administration: 5 min, 10 min, 15 min, 20 min, 30 min, 45 min, 60 min, 75 min, 90 min, 120 min, 240 min, 360 min, 480 min, and 660 min. At each sampling time two 5 mL samples were drawn on […] heparinized tubes. They were immediately centrifuged at room temperature. Serum was then separated and dispatched into three clearly identified aliquots which were frozen at −20° C. […]
12-lead ECGs (50 mm/s, 2 cm/mV) were recorded over 1 minute three times prior to drug intake (HR-RR, QT and QTcf were averaged to determine baseline values) and then at 15, 20, 30, 45, 60, 75, 90, 120, and 240 min post dose. ECG parameters were recorded by using Cardionics™ ECG/VCG software (version 3.3.0). Blood pressure was measured at 120 min post dosing. […]
An HPLC-electrochemical detection system was used to assay 3,4-DAP in serum samples. […] The extracted sample was analyzed by HPLC coupled with coulemetric detection. […]

As for `Nc1ccncc1N` [3,4-DAP, 3,4-diaminopyridine], the “differences in Cmax, AUC and t1/2 between subjects” value (between patients) is “up to 10 fold”. Besides, for the setting “human, serum, as the phosphate salt, 20 mg oral, read-out: Cmax, range between patients”, the Cmax lay within 13 to 167 ng/mL. Under “human, serum, phosphate salt or free base, 20 mg oral”, the half-life was < 2.6 h. Further, the “coefficient of variations for AUCs and Cmax” value (phosphate salt or free base, 20 mg oral) was “exceeding 30%”.

A word on the Cmax: it is the peak of the concentration-time curve. Usually half-life stands for the time needed for the level to fall by half in the phase considered.
